Data taken from ChEMBL document CHEMBL4017496 (J Med Chem, 2017).
Active and inactive are the calls of the source. The rule behind the calls is not given here.

What was measured:
[1] = target: T1, Peroxisome proliferator-activated receptor gamma (Homo sapiens) (UniProt P37231); test: Transactivation of human PPARgamma expressed in African green monkey CV1 cells at 10 uM by luciferase reporter gene assay relative to control; type: cell-based
T1 sequence (whole entry): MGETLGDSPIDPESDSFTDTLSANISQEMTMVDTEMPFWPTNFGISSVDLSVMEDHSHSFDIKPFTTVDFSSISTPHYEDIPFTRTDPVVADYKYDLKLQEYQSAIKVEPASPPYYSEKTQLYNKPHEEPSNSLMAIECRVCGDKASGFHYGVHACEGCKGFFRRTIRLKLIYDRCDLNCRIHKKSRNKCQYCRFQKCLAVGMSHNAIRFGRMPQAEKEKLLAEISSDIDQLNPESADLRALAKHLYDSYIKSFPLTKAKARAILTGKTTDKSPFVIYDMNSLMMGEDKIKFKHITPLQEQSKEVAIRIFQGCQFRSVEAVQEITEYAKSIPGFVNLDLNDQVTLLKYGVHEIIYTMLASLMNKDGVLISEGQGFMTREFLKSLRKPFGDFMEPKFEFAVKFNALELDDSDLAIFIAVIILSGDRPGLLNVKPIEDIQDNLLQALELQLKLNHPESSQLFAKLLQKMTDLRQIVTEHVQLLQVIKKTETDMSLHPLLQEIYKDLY

[2] = target: Cyclin-dependent kinase 5/CDK5 activator 1 (Homo sapiens) (UniProt Q00535+Q15078); test: Inhibition of human CDK5/p25 up to 20 uM using histone H1 as substrate after 40 mins in presence of [gamma32P]ATP by scintillation counting; type: protein-complex assay
Cyclin-dependent kinase 5/CDK5 activator 1 (Homo sapiens), sequence (Q00535 whole entry): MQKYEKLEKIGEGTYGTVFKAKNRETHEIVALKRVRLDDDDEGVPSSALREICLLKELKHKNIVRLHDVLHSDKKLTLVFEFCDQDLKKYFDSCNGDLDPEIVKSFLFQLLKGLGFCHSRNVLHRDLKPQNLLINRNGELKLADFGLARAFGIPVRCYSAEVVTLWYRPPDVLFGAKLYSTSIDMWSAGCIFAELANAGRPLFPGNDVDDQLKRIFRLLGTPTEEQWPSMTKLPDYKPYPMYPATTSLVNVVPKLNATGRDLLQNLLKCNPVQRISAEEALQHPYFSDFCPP
Cyclin-dependent kinase 5/CDK5 activator 1 (Homo sapiens), sequence (Q15078 99-307 partner limits assumed): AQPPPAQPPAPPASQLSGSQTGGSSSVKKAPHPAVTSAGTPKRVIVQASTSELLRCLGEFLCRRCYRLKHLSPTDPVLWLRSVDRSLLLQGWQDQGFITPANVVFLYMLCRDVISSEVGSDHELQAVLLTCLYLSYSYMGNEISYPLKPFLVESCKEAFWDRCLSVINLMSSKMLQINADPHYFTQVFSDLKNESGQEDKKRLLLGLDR

[3] = target: T2, Oxysterols receptor LXR-beta (Homo sapiens) (UniProt P55055); test: Binding affinity to human LXRbeta at 4 uM by TR-FRET assay
T2 sequence (whole entry): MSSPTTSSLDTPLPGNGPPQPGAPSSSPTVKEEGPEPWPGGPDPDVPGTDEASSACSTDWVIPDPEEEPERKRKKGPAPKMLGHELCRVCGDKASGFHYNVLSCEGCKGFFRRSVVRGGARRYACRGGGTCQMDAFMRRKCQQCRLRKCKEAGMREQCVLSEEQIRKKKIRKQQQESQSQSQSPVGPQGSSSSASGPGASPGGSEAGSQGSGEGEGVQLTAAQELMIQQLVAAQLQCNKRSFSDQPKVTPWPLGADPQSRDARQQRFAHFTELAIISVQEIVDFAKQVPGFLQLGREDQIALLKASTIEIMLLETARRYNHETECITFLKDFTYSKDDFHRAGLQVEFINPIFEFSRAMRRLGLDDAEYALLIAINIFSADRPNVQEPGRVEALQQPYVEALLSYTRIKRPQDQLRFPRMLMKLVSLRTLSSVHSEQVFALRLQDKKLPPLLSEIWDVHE

[4] = target: T1, Peroxisome proliferator-activated receptor gamma (Homo sapiens); test: Displacement of Fluormone-Pan-PPAR Green from human GST-tagged PPARgamma LBD at 20 uM by TR-FRET assay relative to control
[5] = Induction of adipogenesis in human bone marrow-derived mesenchymal stem cells assessed as adiponectin level at 20 uM measured on day 7 after 48 hrs by ELISA; type: functional, Mesenchymal stem cell
[6] = target: T3, Peroxisome proliferator-activated receptor delta (Homo sapiens) (UniProt Q03181); test: Displacement of Fluormone-Pan-PPAR Green from human GST-tagged PPARdelta LBD by TR-FRET assay
T3 sequence (whole entry): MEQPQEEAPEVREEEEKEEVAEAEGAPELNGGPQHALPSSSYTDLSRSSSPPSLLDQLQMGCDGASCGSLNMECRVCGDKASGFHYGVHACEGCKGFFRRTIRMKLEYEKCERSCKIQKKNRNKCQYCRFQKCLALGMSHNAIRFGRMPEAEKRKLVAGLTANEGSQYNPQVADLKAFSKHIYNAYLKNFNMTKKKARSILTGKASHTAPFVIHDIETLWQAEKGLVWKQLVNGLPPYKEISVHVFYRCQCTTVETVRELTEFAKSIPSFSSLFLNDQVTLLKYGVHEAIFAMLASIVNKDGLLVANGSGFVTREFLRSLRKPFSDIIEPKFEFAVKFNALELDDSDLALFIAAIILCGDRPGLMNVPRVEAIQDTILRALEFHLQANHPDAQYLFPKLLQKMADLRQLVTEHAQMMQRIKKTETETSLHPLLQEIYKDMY

[7] = target: T3, Peroxisome proliferator-activated receptor delta (Homo sapiens); test: Displacement of Fluormone-Pan-PPAR Green from human GST-tagged PPARdelta LBD at 20 uM by TR-FRET assay relative to control
Mus musculus = test: Antidiabetic activity in STZ-induced diabetic C57BL/6J mouse assessed as insulin sensitivity by measuring reduction of serum lactate level at 20 mg/kg,po for 5 days; type: functional, organism-based
[8] = target: T4, Peroxisome proliferator-activated receptor alpha (Homo sapiens) (UniProt Q07869); test: Displacement of Fluormone-Pan-PPAR Green from human GST-tagged PPARalpha LBD at 4 uM by TR-FRET assay relative to control
T4 sequence (whole entry): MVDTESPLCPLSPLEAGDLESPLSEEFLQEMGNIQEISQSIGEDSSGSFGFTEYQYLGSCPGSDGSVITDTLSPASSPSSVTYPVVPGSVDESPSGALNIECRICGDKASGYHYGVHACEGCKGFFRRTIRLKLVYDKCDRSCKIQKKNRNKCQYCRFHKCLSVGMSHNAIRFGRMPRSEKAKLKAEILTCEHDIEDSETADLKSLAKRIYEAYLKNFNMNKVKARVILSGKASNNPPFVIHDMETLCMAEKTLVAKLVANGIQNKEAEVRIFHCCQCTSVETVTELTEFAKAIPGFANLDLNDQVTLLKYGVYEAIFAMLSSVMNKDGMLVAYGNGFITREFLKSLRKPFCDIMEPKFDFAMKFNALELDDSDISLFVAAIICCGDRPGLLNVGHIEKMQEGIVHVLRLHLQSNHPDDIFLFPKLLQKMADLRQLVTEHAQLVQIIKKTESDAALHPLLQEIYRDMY

[9] = target: T3, Peroxisome proliferator-activated receptor delta (Homo sapiens); test: Transactivation of human GST-tagged PPARdelta LBD assessed as fluorescein-C33 coactivator recruitment at 10 uM by TR-FRET assay
[10] = target: T4, Peroxisome proliferator-activated receptor alpha (Homo sapiens); test: Displacement of Fluormone-Pan-PPAR Green from human GST-tagged PPARalpha LBD at 20 uM by TR-FRET assay relative to control

CNC(=O)[C@H]1O[C@@H](n2cnc3c(NCc4cccc(I)c4)ncnc32)[C@H](O)[C@@H]1O [IB-MECA]
Activity [1]: 29.9% | inhibition [2]: inactive | Activity [3]: inactive | inhibition [4]: 22.2% | Activity [5]: 216 pg/mL | inhibition [6]: Dose-dependent effect | inhibition [7]: 48.3% | Activity (Mus musculus): Active | inhibition [8]: inactive | Activity [9]: inactive | inhibition [10]: 16%
